The results in this text go back to patent US20060293307A1, “Oxazolidinone derivatives as antimicrobials” (priority 2002, published 2006).

Common to all, as to format: cell-based
For test [1], the system named is S. warnerii ST360. In words: MIC, agar incorporation method.
The subject of test [2] is E. faecalis 5B (VRE). The experiment in a line: MIC, agar incorporation method.
In test [3] the test system is H. influenzae ATCC 49247. The experiment in a line: MIC against Haemophilus strains.
In test [4] the test system is H. influenzae βIac. The experiment in a line: MIC against Haemophilus strains.
Test [5] concerns H. influenzae R. The experiment in a line: MIC against Haemophilus strains.
In test [6] the test system is H. influenzae 1381. The experiment in a line: MIC against Haemophilus strains.
Test [7] concerns H. influenzae 1745. The experiment in a line: MIC against Haemophilus strains.
Test [8] has as its system H. influenzae P318. The experiment in a line: MIC against Haemophilus strains.
Test [9] relates to H. influenzae 474. In words: MIC against Haemophilus strains.
Where [10] appears, read: Haemophilus influenzae, ATCC49247, s. No. 2, H. influenzae ATCC 49247, read-out: MIC.
Setting [11] is: Haemophilus influenzae, s. No. 3, H. influenzae βIac, read-out: MIC.
[12] abbreviates: Haemophilus influenzae, s. No. 4, H. influenzae R, read-out: MIC.
[13] abbreviates: Haemophilus influenzae, s. No. 7, H. influenzae 1381, read-out: MIC.
[14] abbreviates: Haemophilus influenzae, s. No. 9, H. influenzae 1745, read-out: MIC.
Setting [15] is: Haemophilus influenzae, s. No. 10, H. influenzae P318, read-out: MIC.
Setting [16] is: Haemophilus influenzae, s. No. 11, H. influenzae 474, read-out: MIC.
Setting [17] is: S. No. 19, E. faecalis 5B (VRE).
[18] abbreviates: s. No. 2, H. influenzae ATCC 49247.

≈ marks a conversion by molar mass, not a printed value. Where two headings read alike, the source gives them in different places.

`CC(=O)NC[C@H]1CN(c2ccc(N3CCN(c4ccc(C=O)s4)CC3)c(F)c2)C(=O)O1` [Compound No. 2, (S)—N-[[3-[3-Fluoro-4-[4-(5-formyl-2-thienyl)-1-piperazinyl]phenyl]-2-oxo-5-oxazolidinyl]methyl]acetamide]: the MIC in test [1] is less than 0.25 µg/mL; in [2] (Enterococcus faecalis, S. No. 19, E. faecalis 5B (VRE), read-out: MIC), 0.5 µg/mL (≈ 1.12 µM); in [3] (setting [10]) it was 16 µg/mL (≈ 35.8 µM); in test [4] (setting [11]), 16 µg/mL (≈ 35.8 µM); in [5] (setting [12]) it was greater than 16 µg/mL; in test [6] (setting [13]), 8 µg/mL (≈ 17.9 µM). Further, the MIC in [7] (setting [14]) was greater than 16 µg/mL; in [8] (setting [15]), greater than 16 µg/mL; in test [9] (setting [16]), 16 µg/mL (≈ 35.8 µM).
As for `CC(=O)NC[C@H]1CN(c2ccc(N3CCN(c4ccc(C=O)o4)CC3)c(F)c2)C(=O)O1` [Compound No. 3, (S)—N-[[3-[3-Fluoro-4-[4-(5-formyl-2-furyl)-1-piperazinyl]phenyl]-2-oxo-5-oxazolidinyl]methyl]acetamide], the MIC in test [3] (setting [10]) is 4 µg/mL (≈ 9.29 µM); in test [4] (setting [11]) it was 4 µg/mL (≈ 9.29 µM); in test [5] (setting [12]) it was 8 µg/mL (≈ 18.6 µM); in test [6] (setting [13]), 8 µg/mL (≈ 18.6 µM); in test [7] (setting [14]), 8 µg/mL (≈ 18.6 µM); in test [8] (setting [15]), 8 µg/mL (≈ 18.6 µM). In addition, the MIC in test [9] (setting [16]) amounted to 4 µg/mL (≈ 9.29 µM).
`CC(=O)NC[C@H]1CN(c2ccc(N3CCN(c4ccc([N+](=O)[O-])o4)CC3)c(F)c2)C(=O)O1` [Compound No. 4, (S)—N-[[3-[3-Fluoro-4-[4-(5-nitro-2-furyl)-1-piperazinyl]phenyl]-2-oxo-5-oxazolidinyl]methyl]acetamide] yielded an MIC in test [1] of 8 µg/mL (≈ 17.9 µM).
With `CC(=O)NC[C@H]1CN(c2ccc(N3CCN(c4cc(C(OC(C)=O)OC(C)=O)sc4[N+](=O)[O-])CC3)c(F)c2)C(=O)O1` [Compound No. 5, (S)—N-[[3-[3-Fluoro-4-[4-{3-thienyl(2-nitro)-5-acetyloxy}methylacetate]-1-piperazinyl]phenyl]-2-oxo-5-oxazolidinyl]acetamide], the MIC in [1] (S. No. 16, S. warnerii ST360) was 0.25 µg/mL (≈ 0.421 µM); in [2] (setting [17]) it was 1 µg/mL (≈ 1.68 µM); in test [3] (setting [18]) it was greater than 16 µg/mL; in test [4] (s. No. 3, H. influenzae βIac) it was greater than 16 µg/mL; in test [5] (s. No. 4, H. influenzae R), 16 µg/mL (≈ 27 µM); in test [6] (s. No. 7, H. influenzae 1381), greater than 16 µg/mL. In addition, the MIC in test [7] (s. No. 9, H. influenzae 1745) was 16 µg/mL (≈ 27 µM); in test [8] (s. No. 10, H. influenzae P318), greater than 16 µg/mL; in test [9] (s. No. 11, H. influenzae 474), greater than 16 µg/mL.
In the case of `CC(=O)NC[C@H]1CN(c2ccc(N3CCN(c4ccc([N+](=O)[O-])s4)CC3)cc2)C(=O)O1` [Compound No. 6, (S)—N-[[3-[4-[N-1-(5-nitro-2-thienyl)piperazinyl]-phenyl]-2-oxo-5-oxazolidinyl]-methyl]-acetamide], the MIC in test [1] (S. No. 16, S. warnerii ST360) was found to be 1 µg/mL (≈ 2.24 µM); in [3] (setting [18]), 16 µg/mL (≈ 35.9 µM); in test [4] (s. No. 3, H. influenzae βIac), 8 µg/mL (≈ 18 µM); in test [5] (s. No. 4, H. influenzae R), 16 µg/mL (≈ 35.9 µM); in test [6] (s. No. 7, H. influenzae 1381), 16 µg/mL (≈ 35.9 µM); in test [7] (s. No. 9, H. influenzae 1745), 16 µg/mL (≈ 35.9 µM). The MIC in [8] (s. No. 10, H. influenzae P318) was found to be 16 µg/mL (≈ 35.9 µM); in test [9] (s. No. 11, H. influenzae 474), 16 µg/mL (≈ 35.9 µM).
In the case of `C[C@H](Cl)C(=O)NCC1CN(c2ccc(N3CCN(c4ccc([N+](=O)[O-])s4)CC3)c(F)c2)C(=O)O1` (stereo partly drawn) [Compound No. 7, (S)—N-[[3-[3-Fluoro-4-[N-1-{4-(5-nitro-2-thienyl)piperazinyl}]-phenyl]-2-oxo-5-oxazolidinyl]-methyl]-2-chloro-propionamide], the MIC was 4 µg/mL (≈ 7.81 µM) in [1] (S. No. 16, S. warnerii ST360); greater than 8 µg/mL in [2] (setting [17]); greater than 16 µg/mL in test [3] (setting [18]); greater than 16 µg/mL in test [4] (s. No. 3, H. influenzae βIac); greater than 16 µg/mL in test [5] (s. No. 4, H. influenzae R); greater than 16 µg/mL in test [6] (s. No. 7, H. influenzae 1381). For the same compound, the MIC is greater than 16 µg/mL in test [7] (s. No. 9, H. influenzae 1745); greater than 16 µg/mL in [8] (s. No. 10, H. influenzae P318); greater than 16 µg/mL in [9] (s. No. 11, H. influenzae 474).
Consider `O=C(NC[C@H]1CN(c2ccc(N3CCN(c4ccc([N+](=O)[O-])s4)CC3)c(F)c2)C(=O)O1)C(F)F` [Compound No. 8, (S)—N-[[3-[3-Fluoro-4-[4-(5-nitro-2-thienyl)-1-piperazinyl]phenyl]-2-oxo-5-oxazolidinyl]methyl]difluoroacetamide], for which the MIC was 0.25 µg/mL (≈ 0.501 µM) in [1]; 2 µg/mL (≈ 4 µM) in test [2] (Enterococcus faecalis, VRE); greater than 16 µg/mL in [3] (Haemophilus influenzae, ATCC49247); greater than 16 µg/mL in test [4] (Haemophilus influenzae); greater than 16 µg/mL in test [5] (Haemophilus influenzae); greater than 16 µg/mL in [6] (Haemophilus influenzae, 1381). In addition, the MIC in [7] (Haemophilus influenzae, 1745) is 16 µg/mL (≈ 32 µM); in [8] (Haemophilus influenzae, P318), greater than 16 µg/mL; in [9] (Haemophilus influenzae, 474), greater than 16 µg/mL.
For the compound `CN[C@H](CC(C)C)C(=O)N[C@H]1C(=O)N[C@@H](CC(N)=O)C(=O)N[C@H]2C(=O)N[C@H]3C(=O)N[C@H](C(=O)N[C@H](C(=O)O)c4cc(O)cc(O)c4-c4cc3ccc4O)[C@H](O)c3ccc(c(Cl)c3)Oc3cc2cc(c3O[C@@H]2O[C@H](CO)[C@@H](O)[C@H](O)[C@H]2O[C@H]2C[C@](C)(N)[C@H](O)[C@H](C)O2)Oc2ccc(cc2Cl)[C@H]1O` [Vancomycin, reference compound], the MIC was 0.5 µg/mL (≈ 0.345 µM) in [1] and greater than 16 µg/mL in [2] (Enterococcus faecalis, VRE).
`O=C(NC[C@H]1CN(c2ccc(N3CCN(c4ccc([N+](=O)[O-])s4)CC3)c(F)c2)C(=O)O1)C(Cl)Cl` [compound 9, (S)—N-[[3-[-3-Fluoro-4-[N-1-(5-nitro-2-thienyl)-piperazinyl]phenyl] -2-oxo-5-oxazolidinyl]methyl]dichloroacetamide]: the MIC was 0.5 µg/mL (≈ 0.939 µM) in test [1] (S. No. 16, S. warnerii ST360); 0.5 µg/mL (≈ 0.939 µM) in [2] (setting [17]); greater than 16 µg/mL in [3] (setting [18]); greater than 16 µg/mL in test [4] (s. No. 3, H. influenzae βIac); greater than 16 µg/mL in test [5] (s. No. 4, H. influenzae R); greater than 16 µg/mL in [6] (s. No. 7, H. influenzae 1381). For the same compound, the MIC in test [7] (s. No. 9, H. influenzae 1745) is greater than 16 µg/mL; in test [8] (s. No. 10, H. influenzae P318), greater than 16 µg/mL; in [9] (s. No. 11, H. influenzae 474) it was greater than 16 µg/mL.
Regarding “(S)—N-[[3-[-3-Fluoro-4-[(5-nitro-2-thienyl)-3-methyl-1-piperazinyl]phenyl]-2-oxo-5-oxazolidinyl]methyl]acetamide [Compound No. 10]”, the MIC was 0.5 µg/mL in [1] (S. No. 16, S. warnerii ST360); 1 µg/mL in [2] (setting [17]); greater than 16 µg/mL in test [3] (setting [18]); greater than 16 µg/mL in test [4] (s. No. 3, H. influenzae βIac); greater than 16 µg/mL in test [5] (s. No. 4, H. influenzae R); greater than 16 µg/mL in test [6] (s. No. 7, H. influenzae 1381). For the same compound, the MIC in [7] (s. No. 9, H. influenzae 1745) is greater than 16 µg/mL; in test [8] (s. No. 10, H. influenzae P318), greater than 16 µg/mL; in test [9] (s. No. 11, H. influenzae 474), greater than 16 µg/mL.
